# Measured values reported in patent US20220291235A1, “ACOUSTO-THERMAL SHIFT ASSAY FOR LABEL-FREE PROTEIN ANALYSIS” (THE REGENTS OF THE UNIVERSITY OF COLORADO - A BODY CORPORATE, priority 2019, published 2022).
# Columns and labels:
# human hemoglobin (Hb) [1] = molecular target: T1, human hemoglobin (Hb) (Homo sapiens, UniProt P68871+P69905); test: Conventional thermal shift assay, BCA assay (BCA-TSA), Hb-Pal binding
# T1 construct: purchased Millipore Sigma
# Protocol: (§1) In some embodiments, SAW-driven protein unfolding and concentration can be used for analysis of protein-ligand binding to analyze the melting temperature (Tm) and its shift (Δtm) upon protein-ligand binding. Gray intensity of the precipitated and concentrated proteins was measured and plotted as a function of SAW time in A-TSA. See, FIG. 5A. Two control conventional TSA methods were performed in parallel measuring the data using either a differential scanning fluorimetry (DSF) assay or a bicinchoninic acid (BCA) assay. DSF, the most popular C-TSA method, utilizes dye fluorescence as a measure of protein unfolding. Matulis et al., “Thermodynamic stability of carbonic anhydrase: measurements of binding affinity and stoichiometry using ThermoFluor” J. Biochemistry 44:5258-5266 (2005). On the other hand, BCA quantifies the amount of remaining soluble proteins after thermal unfolding. Brown et al., “Protein measurement using bicinchoninic acid: elimination of interfering substances” Anal. Biochem. 180:136-139 (1989). BCA assay: For thermal gradient profiling, a gradient program was created using a PTC-200 thermal cycler (MJ Research, Reno, N.V., USA) to cover the temperature points indicated in each figure. A PCR plate was prepared with 25 μL per well of recombinant protein or lysate and sealed (4titude Random Access, PN 4ti-0960/RA 96-well plate). […]
# human hemoglobin (Hb) [2] = molecular target: T1, human hemoglobin (Hb); test: Acousto-thermal shift assay (A-TSA), Hb-Pal binding; details: SAW 19.6 MHz, 3 Watts, Hb 31 μM
# Excerpt: (§2) Specifically, two identical SAWs were generated by applying an AC (alternating current) signal to a pair of interdigital transducers (IDTs) deposited on the surface of a lithium niobate piezoelectric substrate. A standing SAW was formed within a 1×10 mm^2 polydimethylsiloxane (PDMS) microchannel. The microchannel was bonded on top of a substrate between these two IDTs. See, FIGS. 4A(i) and FIG. 4B. […] Most proteins rapidly precipitate and aggregate after their unfolding. See, FIG. 4A(ii).
# (§3) Simultaneously, the standing SAW aggregates and concentrates precipitated protein along the acoustic pressure nodes and/or antinodes. See, FIG. 4A(iii). Gray intensity (Im) of the precipitated and aggregated proteins was analyzed and plotted as a function of SAW time, giving rise to a sigmoidal melting curve. See, FIG. 4A(iv). The melting time (Tm) was determined as the time point when half of proteins were unfolded (i.e. herein, a 50% change of gray intensity occurs where Im=(Imax+Imin)/2.). Using this simple analysis, the time shift Δτm between between two samples can be measured at a given SAW power and analyzed to compare conditions or ligands that stabilize or destabilize proteins. Overall, this new technique provides a rapid, simple and efficient workflow for analysis of changes in apparent melting curves. […]
# [3] = molecular target: T2, citrate synthase (CS) from porcine heart (Sus scrofa, UniProt P00889); test: Conventional thermal shift assay, BCA assay (BCA-TSA), CS-OAA binding
# T2 construct: citrate synthase (CS) from porcine heart (Millipore Sigma); purchased Millipore Sigma; host or cells: porcine heart
# T2 sequence (P00889 28-464): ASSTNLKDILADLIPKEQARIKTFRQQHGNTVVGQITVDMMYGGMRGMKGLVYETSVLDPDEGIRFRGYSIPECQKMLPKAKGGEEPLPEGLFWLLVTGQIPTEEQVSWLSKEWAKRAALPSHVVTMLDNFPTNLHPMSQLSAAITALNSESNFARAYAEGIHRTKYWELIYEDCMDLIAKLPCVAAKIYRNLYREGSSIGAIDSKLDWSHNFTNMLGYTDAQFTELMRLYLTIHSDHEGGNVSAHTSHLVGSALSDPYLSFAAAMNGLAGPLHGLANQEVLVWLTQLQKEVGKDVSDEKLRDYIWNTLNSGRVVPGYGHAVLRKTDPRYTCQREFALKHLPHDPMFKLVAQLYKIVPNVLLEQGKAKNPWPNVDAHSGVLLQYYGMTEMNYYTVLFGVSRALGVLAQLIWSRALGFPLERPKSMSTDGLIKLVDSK
# Protocol: as §1
# [4] = molecular target: T2, citrate synthase (CS) from porcine heart; test: Conventional thermal shift assay, SYPRO DSF assay (DSF-TSA), CS-OAA binding; details: OAA present
# Protocol: In some embodiments, SAW-driven protein unfolding and concentration can be used for analysis of protein-ligand binding to analyze the melting temperature (Tm) and its shift (Δtm) upon protein-ligand binding. Gray intensity of the precipitated and concentrated proteins was measured and plotted as a function of SAW time in A-TSA. See, FIG. 5A. Two control conventional TSA methods were performed in parallel measuring the data using either a differential scanning fluorimetry (DSF) assay or a bicinchoninic acid (BCA) assay. DSF, the most popular C-TSA method, utilizes dye fluorescence as a measure of protein unfolding. Matulis et al., “Thermodynamic stability of carbonic anhydrase: measurements of binding affinity and stoichiometry using ThermoFluor” J. Biochemistry 44:5258-5266 (2005). On the other hand, BCA quantifies the amount of remaining soluble proteins after thermal unfolding. Brown et al., “Protein measurement using bicinchoninic acid: elimination of interfering substances” Anal. Biochem. 180:136-139 (1989).
# SYPRO DSF assay: SYPRO Orange melting curves were collected using the 7900HT Fast Real-Time PCR System. […] To analyze melting curves, the fluorescence was normalized to the starting temperature and to no protein controls. The data was then scaled to interval (0,1) and then the replicates were averaged, and standard deviation calculated.
# [5] = molecular target: T2, citrate synthase (CS) from porcine heart; test: Acousto-thermal shift assay (A-TSA), CS-OAA binding; details: same SAW actuation (19.6 MHz, 3 Watts), CS 15 μM
# Excerpt: as §2, §3
# T1 sequence (P69905 2-142 limits assumed): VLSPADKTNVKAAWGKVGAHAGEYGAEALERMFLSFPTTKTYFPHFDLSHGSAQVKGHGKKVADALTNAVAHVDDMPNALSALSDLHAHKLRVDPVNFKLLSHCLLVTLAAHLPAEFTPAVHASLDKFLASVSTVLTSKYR
# T1 sequence (P68871 2-147 limits assumed): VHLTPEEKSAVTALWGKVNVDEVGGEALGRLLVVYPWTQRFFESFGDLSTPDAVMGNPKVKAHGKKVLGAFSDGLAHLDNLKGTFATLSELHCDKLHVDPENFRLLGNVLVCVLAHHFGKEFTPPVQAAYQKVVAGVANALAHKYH
SMILES,decrease of Tm of Hb (59.1° C.) upon ligand binding (human hemoglobin (Hb) [1]; 0.62 mM Pal) [°C],decrease of Tm of Hb (59.1° C.) upon ligand binding (human hemoglobin (Hb) [1]; 1.24 mM Pal) [°C],reduction of melting time (Tm) of Hb (46.85 s) upon ligand binding (human hemoglobin (Hb) [2]; 0.62 mM Pal) [s],reduction of melting time (Tm) of Hb (46.85 s) upon ligand binding (human hemoglobin (Hb) [2]; 1.24 mM Pal) [s],increase of Tm of CS (60.3° C.) upon ligand binding ([3]; 1 mM OAA) [°C],increase of Tm of CS (60.3° C.) upon ligand binding ([3]; 2 mM OAA) [°C],tm shift of CS as detected in DSF assay [4],increase of tm of CS (36.23 s) upon ligand binding ([5]; 1 mM OAA) [s],increase of tm of CS (36.23 s) upon ligand binding ([5]; 2 mM OAA) [s]
"COc1cc2c(cc1OC)-c1cc3ccc(OC)c(OC)c3c[n+]1CC2 [Pal, palmatine chloride]",0.7,1.1,3.52,7.30,–,–,–,–,–
"O=C(O)CC(=O)C(=O)O [OAA, oxaloacetic acid]",–,–,–,–,2.0,2.9,small and not statistically significant,10.45,15.77
